Measured values from patent US10974081B2, “Treatment and prevention of sleep disorders” (Purdue Pharma L.P., priority 2016, dated 2021).
Where two headings read alike, the source gives them in different places.

What was measured:
[1] = Plasma concentration (pharmacokinetics) after single oral dose in humans; format: in vivo, human; conditions: for half-life / Tmax / AUC(0-t) / Cmax / AUC(0-inf): male, human, plasma; for half-life / Tmax: po; for AUC(0-inf): read-out: AUCinf Mean
Method: The plasma concentration of Compound (1D) was evaluated in humans for up to 36 hours after administration of a single oral dose of 3, 10, or 30 mg of Compound (1D) in the form of a methyl cellulose suspension. Four healthy male subjects were administered each dose.
FIG. 19A provides a plot of the human plasma concentration of Compound (1D) on a linear scale versus linear time in hours at each dose: 3, 10, and 30 mg. FIG. 19B provides the same results in a plot of human plasma concentration of Compound (1D) on a logarithmic scale versus linear time at each dose. The target plasma exposure indicated in FIG. 19A relates to the effective dose in 80% of subjects from rat modeling results.

rat liver microsomes = experiment: In vitro metabolic stability, rat liver microsomes; format: in vitro ADME; conditions: 2 μM, % remaining after 30 minutes at 37° C.
Method: The comparative in vitro metabolic stabilities of Compounds (1F), […], and W-212393 were determined upon exposure to human liver microsomes or rat liver microsomes according to a procedure disclosed in, e.g., Example 14 of U.S. Pat. No. 9,290,488, which is hereby incorporated by reference in its entirety. Liver microsomes from Crj;CD rats or humans were incubated with 2 μM of each tested compound; thereafter, the supernatant was analyzed by HPLC-MS for the concentration of the tested compound present. Human liver microsomes, pooled, 20 mg/mL, were obtained from […] #H0610). […] Alternatively and if desired, rat liver microsomes can be obtained commercially from, e.g., XenoTech (Sprague-Dawley rat liver microsomes, pooled, 20 mg/mL, cat #R1000). β-NADPH (β-nicotinamide adenine dinucleotide 2'-phosphate reduced tetrasodium salt hydrate) was obtained from Oriental Yeast Co., Ltd. (Tokyo, Japan). Each tested compound, present at an initial concentration of 2 μM, was incubated at 37° C. in the presence of 0.5 mg/mL of either human microsomes or rat microsomes in suspension in 50 mM Tris-HCl buffer (7.4 pH), 150 mM KCl, 10 mM MgCl2, and 1 mM β-NADPH. Incubation was initiated upon the addition of a 100-fold concentrated solution of the tested compound to one of the microsome preparations. Incubation was terminated by addition of a two-fold volume of a 1/1 mixture of acetonitrile/methanol after either 0 minutes or 30 minutes of incubation at 37° C. Thereafter, proteins and other macromolecules from the microsome preparation were removed by centrifugation. All incubations were conducted in duplicate. […] The HPLC system consisted of a Waters 2795 separations module (Waters Corp., Milford, Mass.) equipped with an inline degasser, temperature controlled auto-sampler, and column oven. The analytical column was a Waters […], 2.1 mm×20 mm column. The mass analyzer was a Waters ZQ, single quadrupole mass spectrometer equipped with an electrospray ionization source operating in the positive ionization mode and utilizing a stainless steel spray capillary. […]

[2] = In vivo functional observational battery (FOB); conditions: male, Crl:CD(SD), rat, in vivo, po

For O=C(O)c1nc2ccccc2n([C@H]2C[C@H]3CCC[C@@H](C2)N3C2CC3CCCC(C3)C2)c1=O (stereo partly shown) [Compound (1D)], the “AUCinf Maximum” value ([1]; 3 mg single oral dose) was 176 ng·h/mL, the “AUCinf Minimum” value ([1]; 3 mg single oral dose) was 144 ng·h/mL and the “AUCt Maximum” value ([1]; 3 mg single oral dose) was 168 ng·h/mL. The “AUCt Minimum” value ([1]; 3 mg single oral dose) was 135 ng·h/mL, the “Cmax Maximum” value ([1]; 3 mg single oral dose) was 34 ng/mL and the “Cmax Minimum” value ([1]; 3 mg single oral dose) was 23 ng/mL. For the same compound, the “t1/2 Minimum” value ([1]; 3 mg single oral dose) was 2.1 h, the “tmax Maximum” value ([1]; 3 mg single oral dose) was 2.0 h and the “AUCinf Maximum” value ([1]; 10 mg single oral dose) was 557 ng·h/mL. For the same compound, the “AUCinf Minimum” value ([1]; 10 mg single oral dose) was 320 ng·h/mL, the “AUCt Maximum” value ([1]; 10 mg single oral dose) was 550 ng·h/mL and the “AUCt Minimum” value ([1]; 10 mg single oral dose) was 300 ng·h/mL. For the same compound, the “Cmax Maximum” value ([1]; 10 mg single oral dose) was 98 ng/mL, the “Cmax Minimum” value ([1]; 10 mg single oral dose) was 56 ng/mL and the “t1/2 Maximum” value ([1]; 10 mg single oral dose) was 3.0 h. The “t1/2 Minimum” value ([1]; 10 mg single oral dose) was 2.4 h, the “tmax Maximum” value ([1]; 10 mg single oral dose) was 2.0 h and the “tmax Minimum” value ([1]; 10 mg single oral dose) was 1.0 h. The “AUCinf Maximum” value ([1]; 30 mg single oral dose) was 714 ng·h/mL, the “AUCinf Minimum” value ([1]; 30 mg single oral dose) was 398 ng·h/mL and the “AUCt Maximum” value ([1]; 30 mg single oral dose) was 708 ng·h/mL. For the same compound, the “AUCt Minimum” value ([1]; 30 mg single oral dose) was 388 ng·h/mL, the “Cmax Maximum” value ([1]; 30 mg single oral dose) was 106 ng/mL and the “Cmax Minimum” value ([1]; 30 mg single oral dose) was 69 ng/mL. For the same compound, the “t1/2 Maximum” value ([1]; 30 mg single oral dose) was 3.2 h, the “tmax Maximum” value ([1]; 30 mg single oral dose) was 3.0 h and the “tmax Minimum” value ([1]; 30 mg single oral dose) was 1.0 h. The gastrointestinal absorption ([1]; across the three doses) was “rapid gastrointestinal absorption”, the half-life ([1]; 3 mg, 3 mg single oral dose, read-out: t1/2 Mean (converted)) was 2.3 h and the Tmax ([1]; 3 mg, 3 mg single oral dose, read-out: tmax Mean) was 1.6 h. The Tmax ([1]; 3 mg, 3 mg single oral dose, read-out: tmax Median) was 1.5 h, the half-life ([1]; 10 mg, 10 mg single oral dose, read-out: t1/2 Mean (converted)) was 2.6 h and the Tmax ([1]; 10 mg, 10 mg single oral dose, read-out: tmax Mean) was 1.5 h. It also gave a half-life ([1]; 30 mg, 30 mg single oral dose, read-out: t1/2 Mean (converted)) of 2.8 h, a Tmax ([1]; 30 mg, 30 mg single oral dose, read-out: tmax Mean) of 1.8 h and a Tmax ([1]; 30 mg, 30 mg single oral dose, read-out: tmax Median) of 1.5 h. For the same compound, the half-life ([1]; 30 mg, 3, 10 and 30 mg single oral doses, read-out: t1/2, minimum to maximum across the three doses) was 2.1 to 3.2 h, the Tmax ([1]; 30 mg, 3, 10 and 30 mg single oral doses, read-out: tmax, minimum to maximum across the three doses) was 1 to 3 h and the AUC(0-t) ([1]; 3 mg single oral dose) was 154 ng·h/mL. The Cmax ([1]; 3 mg single oral dose) was 30 ng/mL, the AUC(0-inf) ([1]; 3 mg single oral dose) was 161 ng·h/mL and the AUC(0-t) ([1]; 10 mg single oral dose) was 438 ng·h/mL. For the same compound, the Cmax ([1]; 10 mg single oral dose) was 77 ng/mL, the AUC(0-inf) ([1]; 10 mg single oral dose) was 447 ng·h/mL and the AUC(0-t) ([1]; 30 mg single oral dose) was 505 ng·h/mL. It also gave a Cmax ([1]; 30 mg single oral dose) of 83 ng/mL and an AUC(0-inf) ([1]; 30 mg single oral dose) of 512 ng·h/mL.
With CNC(=O)Cn1c(=O)n(C2CCN([C@@H]3Cc4cccc5cccc3c45)CC2)c2ccccc21 [Compound W-212393] the “Rat Metabolic Stability (%)” value (rat liver microsomes) was 58.4% and the NOAEL [2] was 1 mg/kg.
